In PMC9854584, “Synergistic Activity of Pep16, a Promising New Antibacterial Pseudopeptide against Multidrug-Resistant Organisms, in Combination with Colistin against Multidrug-Resistant Escherichia coli, In Vitro and in a Murine Peritonitis Model” (Antibiotics, 2023):
Values after ≈ are worked out from the molar mass of the structure shown. Read-outs that look alike come from different tables or passages of the source.

Columns and labels:
[1] = test system: E. coli B119; experiment: MIC, broth microdilution (EUCAST); type: cell-based, Escherichia coli; settings: B119, inoculum 10^5 CFU/mL
Method: (§1) The MICs of Pep16 and colistin were determined by the broth microdilution method in accordance with the EUCAST guidelines (www.eucast.org, accessed on 2 September 2022). In order to investigate for the presence of a potential inoculum effect in vitro, MICs were performed with various inoculum sizes, increasing from 10^5 to 10^7 CFU/mL. To explore MIC variations in the presence of albumin, MICs were also determined in Mueller–Hinton broth (MHB) supplemented with 4% human albumin.

[2] = test system: E. coli CFT073-pTOPO; experiment: MIC, broth microdilution (EUCAST); type: cell-based, Escherichia coli; settings: at least three experiments
Method: as §1

[3] = test system: E. coli CFT073-pTOPO-COLR; experiment: MIC, broth microdilution (EUCAST); type: cell-based, Escherichia coli
Method: as §1

[4] = test system: E. coli Af31; experiment: MIC, broth microdilution (EUCAST); type: cell-based, Escherichia coli
Method: as §1

[5] = test system: E. coli CFT073-pTOPO; type: in vivo, mice; settings: peritonitis due to CFT073-pTOPO; for mean bacterial counts in the spleen / mice that died before the planned time of the sacrifice: single s.c. dose 2 h after inoculation: Pep16 10 mg/kg, colistin 10 mg/kg, cefotaxime 100 mg/kg, or colistin 10 + Pep16 10 mg/kg; for mice that died before the planned time of the sacrifice: planned sacrifice 3, 6, 12 h
Method: (§2) Animal experiments were performed in accordance with the prevailing regulations and ethical requirements of the Direction of Veterinary Services of Paris. The experimental protocol was approved by the French Ministry of Research and by the Ethics Committee for Animal Experiments (No. APAFIS 22330-2019092415325730). Animals were housed in regulation cages and given free access to food and water. Swiss ICR-strain female mice weighing 25 to 30 g were used.
We used the lethal murine intraperitoneal infection model previously developed by our group. Mice were inoculated by the intraperitoneal route with 250 μL of a bacterial suspension in porcine mucin 10% (Sigma–Aldrich), corresponding to a final inoculum of approximately 2.5 × 10^7 CFU/mL. The strains tested were CFT073-pTOPO and CFT073-pTOPO-COLR. Two hours after inoculation, at least three mice per strain were sacrificed to determine the pre-therapeutic bacterial loads, referred to as start-of-treatment controls, since all untreated mice died within 12 h (data not shown), preventing the use of end-of-treatment controls. Each treatment group was composed of 9 mice, which were administered a single dose of antibiotic (or of a combination of antibiotics) subcutaneously 2 h after inoculation. The treatment groups were Pep16 10 mg/kg, colistin 10 mg/kg, cefotaxime 100 mg/kg, and Pep16 10 mg/kg + colistin 10 mg/kg. Doses of cefotaxime and colistin were chosen based on previous pharmacokinetic analysis, while the dose of Pep16 was chosen based on the present survival study and pharmacokinetic analysis. In each treatment group, mice were sacrificed by 200 µL of pentobarbital 40% (Euthasol VetVR, Dechra Veterinary Products, Montigny-Le-Bretonneux, France) in a sequential way: 3 mice 3 h after treatment, 3 mice 6 h after treatment, and 3 mice 12 h after treatment. Immediately after death, the spleens were extracted and homogenized. Samples were plated on LB agar. To detect resistant mutants after treatment with colistin, samples were also plated on LB agar containing colistin at 4× MIC. The MICs of colistin-resistant mutants were determined (see above). Colony counts were then determined after 48 h of culture. Endpoints were spontaneous death (before the planned time of the sacrifice), bacterial counts in the spleen, and the emergence of colistin-resistant mutants. The assessment criteria of the murine model were: (i) mortality rate; (ii) bacterial counts in peritoneal fluid (PF) and the spleen; and (iii) the selection of colistin-resistant mutants after 24 h of treatment.

[6] = test system: colistin-resistant mutants of E. coli CFT073-pTOPO and B119; experiment: MIC for colistin-resistant mutants selected in time-kill curves; type: cell-based, Escherichia coli; settings: mutants after 24 h of exposure to colistin alone in time-kill curves
Method: as §1
Time–kill curves were performed with Pep16 (4–128 mg/L) and colistin (0.5–8 mg/L) alone or in combination. Exponentially growing E. coli cells were incubated in 10 mL of Mueller–Hinton broth to obtain 10^6 CFU/mL with Pep16 and/or colistin. Viable counts were enumerated by plating 100 μL of appropriate culture dilutions on to lysogeny broth (LB) agar plates after 0, 1, 3, 6, and 24 h of incubation at 37 °C and expressed in log10 CFU/mL. The lower limit of detection was 1 log10 CFU/mL. A bactericidal effect is defined as a 3 log10 decrease in CFU counts compared with the initial inoculum. A synergistic effect is defined as a 2 log10 decrease in CFU counts between the combination and its most-active constituent after 24 h. […] The MICs of colistin-resistant mutants after 24 h of colistin monotherapy were determined (see above). […]

[7] = test system: E. coli CFT073-pTOPO; experiment: Flow cytometry study of membrane permeability (Live/Dead BacLight, SYTO9/PI); type: cell-based, Escherichia coli; settings: 30 min exposure, 10^6 CFU/mL; colistin 0.25 mg/L (0.25x MIC), Pep16 16 mg/L (0.25x MIC), alone or combined; positive control 90% ethanol; D/M = Q3/(Q1+Q2+Q3)
Method: Flow cytometry was used to investigate membrane permeability after exposure to antibiotics. Experiments were executed on a Fortessa X-20 flow cytometer (Becton Dickinson, Le Pont de Claix, France) equipped with a 488 nm laser. Exponentially growing E. coli CFT073-pTOPO cells at 10^6 CFU/mL were obtained and incubated with colistin and/or Pep16 at 0.25× MIC during 30 min. […] The samples were centrifuged and reconstituted in phosphate-buffered saline twice. Cells were then stained by using a Live/Dead BacLight kit (Molecular Probes, Invitrogen, Cergy-Pontoise, France) as previously shown [20]. The kit consists of two fluorescent intercalating agents, propidium iodide (PI) and SYTO9, which both stain nucleic acids. The green-fluorescing SYTO9 is able to enter all cells when used alone, whereas the red-fluorescing PI only enters cells with damaged cytoplasmic membranes. The appropriate mixture of the SYTO9 and PI stains enables differentiation between bacteria with intact cytoplasmic membranes and dead bacteria with permeabilized cytoplasmic membranes. Optical filters were set up such that red fluorescence was measured at 635 nm and green fluorescence was measured at 500 nm. The proportion of dead cells (colored in red)/marked cells (colored in red and/or green) was retrieved for each condition. A minimum of 50,000 events per condition were recorded.

[8] = test system: E. coli CFT073-pTOPO-COLR; experiment: Murine peritoneal infection model; type: in vivo, mice; settings: peritonitis due to CFT073-pTOPO-COLR; single s.c. dose: Pep16 10 mg/kg, colistin 10 mg/kg, or colistin 10 + Pep16 10 mg/kg
Method: as §2
We used the lethal murine intraperitoneal infection model previously developed by our group. Mice were inoculated by the intraperitoneal route with 250 μL of a bacterial suspension in porcine mucin 10% (Sigma–Aldrich), corresponding to a final inoculum of approximately 2.5 × 10^7 CFU/mL. The strains tested were CFT073-pTOPO and CFT073-pTOPO-COLR. Two hours after inoculation, at least three mice per strain were sacrificed to determine the pre-therapeutic bacterial loads, referred to as start-of-treatment controls, since all untreated mice died within 12 h (data not shown), preventing the use of end-of-treatment controls. Each treatment group was composed of 9 mice, which were administered a single dose of antibiotic (or of a combination of antibiotics) subcutaneously 2 h after inoculation. […] The MICs of colistin-resistant mutants were determined (see above). Colony counts were then determined after 48 h of culture. […]

## CO/N=C(\C(=O)N[C@@H]1C(=O)N2C(C(=O)O)=C(COC(C)=O)CS[C@H]12)c1csc(N)n1 [Cefotaxime, cefotaxime]
[1]; Escherichia coli, read-out: MIC
  MIC: 0.06 µg/mL (≈ 0.132 µM)
[2]; Escherichia coli, CFT073PTOPO, inoculum 10^5 CFU/mL
  MIC: 0.06 µg/mL (≈ 0.132 µM)
[2]; Escherichia coli, CFT073PTOPO, inoculum 10^6 CFU/mL
  MIC: 1 µg/mL (≈ 2.2 µM)
[2]; Escherichia coli, CFT073PTOPO, inoculum 10^7 CFU/mL
  MIC: 8 µg/mL (≈ 17.6 µM)
[3]; Escherichia coli
  MIC: 0.06 µg/mL (≈ 0.132 µM)
[4]; Escherichia coli, AF31
  MIC: 0.06 µg/mL (≈ 0.132 µM)
[5]
  mean bacterial counts in the spleen: 3.6 × 10^6 CFU/g
  mice that died before the planned time of the sacrifice: 0/9

## colistin sulfate
[1]
  MIC: 1 µg/mL
[2]; inoculum 10^5 CFU/mL
  MIC: 1 µg/mL
[2]; inoculum 10^6 CFU/mL
  MIC: 2 µg/mL
[2]; inoculum 10^7 CFU/mL
  MIC: 32 µg/mL
[3]; CFT073-pTOPO-COLR, inoculum 10^5 CFU/mL
  MIC: 16 µg/mL
[4]; Af31 (mcr-1 plasmid), inoculum 10^5 CFU/mL
  MIC: 8 µg/mL
[6]
  MIC of colistin-resistant mutants: 8 to 16 mg/L
[5]; colistin 10 mg/kg alone or with Pep16 10 mg/kg
  proportion of mice with colistin-resistant mutants: 9/9
[5]; colistin 10 mg/kg alone or with Pep16 10 mg/kg, LB agar with colistin at 4x MIC
  mean counts of colistin-resistant mutants in the spleens: 1.6 × 10^3 CFU/g
[5]
  mean bacterial counts in the spleen: 2.7 × 10^8 CFU/g
  mice that died before the planned time of the sacrifice: 1/9
[7]
  percentage of dead cells/marked cells (D/M): 60%
[8]
  mean bacterial counts in the spleen: 4.0 × 10^8 CFU/g
  mice that died before the planned time of the sacrifice: 5/9
